Read-outs that look alike come from different tables or passages of the source.
Target: CFTR (Homo sapiens, UniProt P13569)
Experiment: Membrane potential dye, Enteroid Assay A
Type: cell-based
Settings: for Ent. A Max Activity: chloride transport as % of triple combination control (Enteroid Assay A); for EC50: human enteroid cells, 18-24 hours, acute 10 μM forskolin and 300 nM ivacaftor, read-out: Ent. A EC50
How it was run: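 % Activity: chloride transport relative to a 3 μM/3 μM corrector pair plus 300 nM acute potentiator control. Primary human enteroid cells, 18-24 h compound exposure at 37 °C; membrane potential dye (methyl oxonol) fluorescence over 15 min after forskolin (10 μM)/IBMX (100 μM)/Compound III (300 nM) stimulation in chloride-free buffer.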

Sequence of CFTR (P13569 with tags, fused parts or gaps DEL508-508): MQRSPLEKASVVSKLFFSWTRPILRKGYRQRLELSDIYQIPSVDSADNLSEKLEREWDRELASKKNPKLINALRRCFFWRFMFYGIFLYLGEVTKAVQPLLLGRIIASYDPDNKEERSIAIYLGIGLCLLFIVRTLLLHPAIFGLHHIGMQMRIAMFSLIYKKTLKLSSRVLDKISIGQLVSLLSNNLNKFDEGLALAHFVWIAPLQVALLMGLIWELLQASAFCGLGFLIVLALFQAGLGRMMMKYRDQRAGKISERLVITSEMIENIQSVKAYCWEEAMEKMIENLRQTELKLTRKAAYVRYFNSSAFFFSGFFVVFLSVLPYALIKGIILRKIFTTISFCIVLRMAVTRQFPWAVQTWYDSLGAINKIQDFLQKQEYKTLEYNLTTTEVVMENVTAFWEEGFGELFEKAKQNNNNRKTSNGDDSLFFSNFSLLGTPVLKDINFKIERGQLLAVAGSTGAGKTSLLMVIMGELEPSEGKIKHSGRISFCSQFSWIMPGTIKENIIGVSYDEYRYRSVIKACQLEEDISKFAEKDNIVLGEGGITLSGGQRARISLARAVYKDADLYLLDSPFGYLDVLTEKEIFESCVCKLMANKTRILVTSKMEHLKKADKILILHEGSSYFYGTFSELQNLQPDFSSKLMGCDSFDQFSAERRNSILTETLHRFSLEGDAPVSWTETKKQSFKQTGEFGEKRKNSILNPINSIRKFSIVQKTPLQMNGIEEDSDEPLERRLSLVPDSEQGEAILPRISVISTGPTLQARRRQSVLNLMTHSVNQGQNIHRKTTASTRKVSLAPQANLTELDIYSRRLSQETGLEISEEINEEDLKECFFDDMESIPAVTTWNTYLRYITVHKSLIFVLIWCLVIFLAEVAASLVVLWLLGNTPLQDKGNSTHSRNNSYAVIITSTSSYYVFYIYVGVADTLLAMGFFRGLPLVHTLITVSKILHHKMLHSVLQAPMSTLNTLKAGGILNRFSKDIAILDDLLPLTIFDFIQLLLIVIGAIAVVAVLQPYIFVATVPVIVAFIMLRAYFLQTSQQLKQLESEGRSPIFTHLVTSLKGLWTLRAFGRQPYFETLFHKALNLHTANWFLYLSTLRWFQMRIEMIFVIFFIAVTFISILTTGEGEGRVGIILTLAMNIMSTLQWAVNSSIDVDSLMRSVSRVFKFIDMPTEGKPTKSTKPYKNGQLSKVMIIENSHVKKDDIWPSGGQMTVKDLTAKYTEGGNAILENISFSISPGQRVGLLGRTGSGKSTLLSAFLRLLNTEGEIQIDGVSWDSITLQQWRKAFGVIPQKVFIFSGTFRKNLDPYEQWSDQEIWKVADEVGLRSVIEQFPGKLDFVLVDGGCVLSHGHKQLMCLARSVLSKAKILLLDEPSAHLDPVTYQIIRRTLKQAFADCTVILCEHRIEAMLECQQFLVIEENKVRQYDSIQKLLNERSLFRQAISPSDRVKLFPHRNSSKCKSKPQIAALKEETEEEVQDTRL

Structure (SMILES) | Ent. A Max Activity (Table 7) | EC50 (Table 7) [nM] | Ent. A Max Activity (Table 6) | EC50 (Table 6) [nM]
Cc1cccc(C)c1-c1cc2nc(n1)NS(=O)(=O)c1cccc(c1)C(=O)N(Cc1ccc(NC[C@@H](O)CO)nc1)[C@H](CC(C)C)CO2 [Compound 947] | +++ (+++ is >60%) | < 1000 |  | 
CC[C@H](O)CNc1ccc(CN2C(=O)c3cccc(c3)S(=O)(=O)Nc3nc(cc(-c4c(C)cccc4C)n3)OC[C@H]2CC(C)C)cn1 [Compound 948] | +++ (+++ is >60%) | 1000 to 3000 |  | 
Cc1cccc(C)c1-c1cc2nc(n1)NS(=O)(=O)c1cccc(c1)C(=O)N(Cc1ccc(N(C)C)nc1)[C@H](CC(C)C)CO2 [Compound 949] | +++ (+++ is >60%) | < 1000 |  | 
Cc1cccc(C)c1-c1cc2nc(n1)NS(=O)(=O)c1cccc(c1)C(=O)N(Cc1ccc(N3CCC3)nc1)[C@H](CC(C)C)CO2 [Compound 950] | +++ (+++ is >60%) | < 1000 |  | 
Cc1cccc(C)c1-c1cc2nc(n1)NS(=O)(=O)c1cccc(c1)C(=O)N(Cc1ccc(N3C[C@@H](O)[C@@H](O)C3)nc1)[C@H](CC(C)C)CO2 [Compound 953] | +++ (+++ is >60%) | < 1000 |  | 
Cc1cccc(C)c1-c1cc2nc(n1)NS(=O)(=O)c1cccc(c1)C(=O)N(Cc1ccc(N3CC[C@@H](O)C3)nc1)[C@H](CC(C)C)CO2 [Compound 955] | +++ (+++ is >60%) | < 1000 |  | 
Cc1cccc(C)c1-c1cc2nc(n1)NS(=O)(=O)c1cccc(c1)C(=O)N(Cc1ccc(N3CCC(CO)CC3)nc1)[C@H](CC(C)C)CO2 [Compound 956] | +++ (+++ is >60%) | < 1000 |  | 
Cc1cccc(C)c1-c1cc2nc(n1)NS(=O)(=O)c1cccc(c1)C(=O)N(Cc1ccc(N3CC[C@@H](C)C3)nc1)[C@H](CC(C)C)CO2 [Compound 958] | +++ (+++ is >60%) | < 1000 |  | 
Cc1cccc(C)c1-c1cc2nc(n1)NS(=O)(=O)c1cccc(c1)C(=O)N(Cc1ccc(N3CCC[C@@H]3C)nc1)[C@H](CC(C)C)CO2 [Compound 960] | +++ (+++ is >60%) | < 1000 |  | 
Cc1cccc(C)c1-c1cc2nc(n1)NS(=O)(=O)c1cccc(c1)C(=O)N(Cc1ccc(N3CCCC3)nc1)[C@H](CC(C)C)CO2 [Compound 961] | +++ (+++ is >60%) | < 1000 |  | 
Cc1cccc(C)c1-c1cc2nc(n1)NS(=O)(=O)c1cccc(c1)C(=O)N(Cc1ccc(N3CCC[C@H](O)C3)nc1)[C@H](CC(C)C)CO2 [Compound 962] | +++ (+++ is >60%) | < 1000 |  | 
Cc1cccc(C)c1-c1cc2nc(n1)NS(=O)(=O)c1cccc(c1)C(=O)N(Cc1ccc(N3CCCC(O)C3)nc1)[C@H](CC(C)C)CO2 (stereo partly shown) [Compound 963] | +++ (+++ is >60%) | < 1000 |  | 
Cc1cccc(C)c1-c1cc2nc(n1)NS(=O)(=O)c1cccc(c1)C(=O)N(Cc1ccc(N3CCCC(C)C3)nc1)[C@H](CC(C)C)CO2 (stereo partly shown) [Compound 964] | +++ (+++ is >60%) | < 1000 |  | 
Cc1cccc(C)c1-c1cc2nc(n1)NS(=O)(=O)c1cccc(c1)C(=O)N(Cc1ccc(N3CCC4(CC3)COC4)nc1)[C@H](CC(C)C)CO2 [Compound 965] | +++ (+++ is >60%) | < 1000 |  | 
Cc1cccc(C)c1-c1cc2nc(n1)NS(=O)(=O)c1cccc(c1)C(=O)N(Cc1ccc(N3CCC(O)CC3)nc1)[C@H](CC(C)C)CO2 [Compound 966] | +++ (+++ is >60%) | < 1000 |  | 
Cc1cccc(C)c1-c1cc2nc(n1)NS(=O)(=O)c1cccc(c1)C(=O)N(Cc1ccc(C3=CCN(C)CC3)nc1)[C@H](CC(C)C)CO2 [Compound 967] |  | < 1000 |  | 
Cc1cccc(C)c1-c1cc2nc(n1)NS(=O)(=O)c1cccc(c1)C(=O)N(Cc1ccc(N3CCC(C(F)(F)F)CC3)nc1)[C@H](CC(C)C)CO2 [Compound 969] | ++ (++ is 30-60%) | < 1000 |  | 
COCC1CCN(c2ccc(CN3C(=O)c4cccc(c4)S(=O)(=O)Nc4nc(cc(-c5c(C)cccc5C)n4)OC[C@H]3CC(C)C)cn2)CC1 [Compound 970] | ++ (++ is 30-60%) | < 1000 |  | 
COC1CCN(c2ccc(CN3C(=O)c4cccc(c4)S(=O)(=O)Nc4nc(cc(-c5c(C)cccc5C)n4)OC[C@H]3CC(C)C)cn2)CC1 [Compound 971] | +++ (+++ is >60%) | < 1000 |  | 
Cc1cccc(C)c1-c1cc2nc(n1)NS(=O)(=O)c1cccc(c1)C(=O)N(Cc1ccc(N3CCC(C#N)CC3)nc1)[C@H](CC(C)C)CO2 [Compound 972] | +++ (+++ is >60%) | < 1000 |  | 
Cc1cccc(C)c1-c1cc2nc(n1)NS(=O)(=O)c1cccc(c1)C(=O)N(Cc1ccc(N3CCC(F)CC3)nc1)[C@H](CC(C)C)CO2 [Compound 973] | +++ (+++ is >60%) | < 1000 |  | 
Cc1cccc(C)c1-c1cc2nc(n1)NS(=O)(=O)c1cccc(c1)C(=O)N(Cc1ccc(N3CCOCC3)nc1)[C@H](CC(C)C)CO2 [Compound 976] |  |  | +++ (+++ is >60%) | < 1000
Cc1cccc(C)c1-c1cc2nc(n1)NS(=O)(=O)c1cccc(c1)C(=O)N(Cc1ccncc1)CCO2 [Compound 977] |  |  | +++ (+++ is >60%) | 3000 to 30000

Structure (SMILES) | Ent. A Max Activity (Table 7) | EC50 (Table 7) [nM] | Ent. A Max Activity (Table 6) | EC50 (Table 6) [nM]
Cc1cccc(C)c1-c1cc2nc(n1)NS(=O)(=O)c1cccc(c1)C(=O)N(Cc1ccccc1)CCO2 [Compound 978] |  |  | +++ (+++ is >60%) | < 1000
Cc1cccc(C)c1-c1cc2nc(n1)NS(=O)(=O)c1cccc(c1)C(=O)N(C)CCO2 [Compound 979] |  |  | + (+ is <30%) | 
Cc1cccc(C)c1-c1cc2nc(n1)NS(=O)(=O)c1cccc(c1)C(=O)N(Cc1ccc(C(=O)N(C)C)nc1)[C@H](CC(C)C)CO2 [Compound 981] | +++ (+++ is >60%) | < 1000 |  | 
Cc1cccc(C)c1-c1cc2nc(n1)NS(=O)(=O)c1cccc(c1)C(=O)N(CCC1CCOCC1)[C@H](CC(F)(F)F)CO2 [Compound 982] | ++ (++ is 30-60%) | 1000 to 3000 |  | 
Cc1cccc(C)c1-c1cc2nc(n1)NS(=O)(=O)c1cccc(c1)C(=O)N(CCC1CCOCC1)[C@H](CC(F)(F)F)CO2 [Compound 983] | ++ (++ is 30-60%) | < 1000 |  | 
Cc1cccc(C)c1-c1cc2nc(n1)NS(=O)(=O)c1cccc(c1)C(=O)N(CCC(C)(C)C)[C@H](CC(F)(F)F)CO2 [Compound 984] | ++ (++ is 30-60%) | 1000 to 3000 |  | 
Cc1cccc(C)c1-c1cc2nc(n1)NS(=O)(=O)c1cccc(c1)C(=O)N(CCC(C)(C)C)[C@H](CC(F)(F)F)CO2 [Compound 985] | ++ (++ is 30-60%) | < 1000 |  | 
COc1ccc(CN2C(=O)c3cccc(c3)S(=O)(=O)Nc3nc(cc(-c4c(C)cccc4C)n3)OC[C@H]2C)cc1 [Compound 986] | ++ (++ is 30-60%) | 1000 to 3000 |  | 
Cc1cccc(C)c1-c1cc2nc(n1)NS(=O)(=O)c1cccc(c1)C(=O)N(CCC(C)(C)C)[C@H](C)CO2 [Compound 987] | + (+ is <30%) | < 1000 |  | 
Cc1cccc(C)c1-c1cc2nc(n1)NS(=O)(=O)c1cccc(c1)C(=O)N(CCC1CCOCC1)[C@H](C)CO2 [Compound 988] | + (+ is <30%) | 3000 to 30000 |  | 
Cc1cccc(C)c1-c1cc2nc(n1)NS(=O)(=O)c1cccc(c1)C(=O)N(Cc1ccc[nH]c1=O)[C@H](CC(C)C)CO2 [Compound 989] |  |  | +++ (+++ is >60%) | 1000 to 3000
CCC(CC)CN1C(=O)c2cccc(c2)S(=O)(=O)Nc2nc(cc(-c3c(C)cccc3C)n2)OC[C@H]1CC(C)C [Compound 990] |  |  | +++ (+++ is >60%) | < 1000
Cc1cccc(C)c1-c1cc2nc(n1)NS(=O)(=O)c1cccc(c1)C(=O)N(C)[C@H](CC(C)C)[C@H](C)O2 [Compound 991] |  |  | +++ (+++ is >60%) | < 1000
Cc1cccc(C)c1-c1cc2nc(n1)NS(=O)(=O)c1cccc(c1)C(=O)N(C)[C@H](c1ccc(C(C)(C)C)cc1)CO2 [Compound 1010] | ++ (++ is 30-60%) | < 1000 |  | 
Cc1cccc(C)c1-c1cc2nc(n1)NS(=O)(=O)c1cccc(c1)C(=O)N(C)[C@H](c1ccc(C(C)(C)C)cc1)CO2 [Compound 1011] | +++ (+++ is >60%) | < 1000 |  | 
C=CC1CN(CCC(C)C)C(=O)c2cccc(c2)S(=O)(=O)Nc2nc(cc(-c3c(C)cccc3C)n2)O1 (stereo not shown) [Compound 1012] |  |  | ++ (++ is 30-60%) | < 1000
Cc1cccc(C)c1-c1cc2nc(n1)NS(=O)(=O)c1cccc(c1)C(=O)N(C)CC(CN(C)CCC(C)(C)C)O2 (stereo not shown) [Compound 1014] |  |  | +++ (+++ is >60%) | 3000 to 30000
Cc1cccc(C)c1-c1cc2nc(n1)NS(=O)(=O)c1cccc(c1)C(=O)N(C)CC(CN1C3CCC[C@H]1CC3)O2 (stereo partly shown) [Compound 1015] |  |  | + (+ is <30%) | 
CNCCNCC1CN(C)C(=O)c2cccc(c2)S(=O)(=O)Nc2nc(cc(-c3c(C)cccc3C)n2)O1 (stereo not shown) [Compound 1016] |  |  | + (+ is <30%) | 
Cc1cccc(C)c1-c1cc2nc(n1)NS(=O)(=O)c1cccc(c1)C(=O)N(C)C[C@H](CNCCC(C)(C)C)O2 [Compound 1017] |  |  | + (+ is <30%) | 
Cc1cccc(C)c1-c1cc2nc(n1)NS(=O)(=O)c1cccc(c1)C(=O)N(C)C[C@@H](CNCCC(C)(C)C)O2 [Compound 1018] |  |  | + (+ is <30%) | 
Cc1cccc(C)c1-c1cc2nc(n1)NS(=O)(=O)c1cccc(c1)C(=O)N(C)CC(CNCCC(C)(C)C)O2 (stereo not shown) [Compound 1019] |  |  | + (+ is <30%) | 
Cc1cccc(C)c1-c1cc2nc(n1)NS(=O)(=O)c1cccc(c1)CN(CCC(C)CC(C)(C)C)[C@H](CC(C)C)CO2 (stereo partly shown) [Compound 1022] | ++ (++ is 30-60%) | < 1000 |  | 
